Results taken from article PMC10167746, “Crystal structure of MbnF: an NADPH-dependent flavin monooxygenase from Methylocystis strain SB2” (Acta Crystallographica. Section F, Structural Biology …, 2023).

Legend:
MbnF (MbnF-His) = molecular target: T1, MbnF (MbnF-His) (Methylocystis sp. SB2, UniProt A0ACD6BAX2); assay: X-ray crystal structure, […] A; assay type: binding; details: co-purified from E. coli, no FAD added; noncovalent; 'in' conformation, all three monomers of the asymmetric unit; crystals pH 6.5, 200 mM NaBr
T1 construct: gene CTY30_04200; full-length, C-terminal His6 tag kept (pET-41a, E. coli BL21(DE3)); monomer in solution (SEC), dimer in crystal

[1] = molecular target: T2, MbnF from Methylocystis sp. strain SB2, C-terminally His6-tagged (Methylocystis sp. strain SB2); assay: native MS; ESI-MS after a SEC column (ACQUITY UPLC Protein BEH SEC) under neutral pH, isocratic 50 mM ammonium acetate pH 6.6; mixture of 1 mg/ml MbnA, 500 µM MbnF, 250 mM NaCl, 50 mM HEPES pH 7.4; details: both partners purified
T2 construct: MbnF, Methylocystis sp. strain SB2; Computed mass 59.17 kDa as printed; also called MbnF-His; FAD-dependent oxidoreductase; source: E. coli BL21(DE3), pET-41, purified (HisTrap, Mono Q); not shown: His6, C-terminal, kept
T2 chain: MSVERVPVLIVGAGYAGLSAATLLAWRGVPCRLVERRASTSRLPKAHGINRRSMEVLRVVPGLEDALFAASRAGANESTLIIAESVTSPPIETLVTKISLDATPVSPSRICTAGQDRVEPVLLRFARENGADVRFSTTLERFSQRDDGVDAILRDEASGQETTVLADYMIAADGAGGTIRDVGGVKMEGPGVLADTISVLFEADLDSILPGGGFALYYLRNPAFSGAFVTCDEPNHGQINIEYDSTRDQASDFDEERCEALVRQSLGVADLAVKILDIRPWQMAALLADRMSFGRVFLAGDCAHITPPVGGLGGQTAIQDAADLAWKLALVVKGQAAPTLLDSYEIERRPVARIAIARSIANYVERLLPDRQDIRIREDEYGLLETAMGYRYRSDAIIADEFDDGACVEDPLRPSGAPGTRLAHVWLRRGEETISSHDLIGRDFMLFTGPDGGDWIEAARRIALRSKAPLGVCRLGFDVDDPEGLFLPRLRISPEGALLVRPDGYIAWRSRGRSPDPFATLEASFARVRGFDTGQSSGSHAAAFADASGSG

Cc1cc2nc3c(=O)[nH]c(=O)nc-3n(C[C@H](O)[C@H](O)[C@H](O)COP(=O)(O)OP(=O)(O)OC[C@H]3O[C@@H](n4cnc5c(N)ncnc54)[C@H](O)[C@@H]3O)c2cc1C [FAD]
X-ray crystal structure, 2.61 A (MbnF (MbnF-His)): All three monomers of the asymmetric unit bound FAD in the same general conformation

B1: MbnA peptide (methanobactin MB-SB2 precursor peptide) (peptide)
peptide: IRIAKRITLNVIGRASARCASTCAATNG
notes: MbnA, precursor peptide of methanobactin MB-SB2, Methylocystis sp. strain SB2; the natural precursor may have further residues at its N-terminus; also called MB-SB2 peptide precursor; source: synthetic peptide, bought: AnaSpec (~90% pure)
binding result [1]: binds
